According to patent US9242995B2, “Isoxazolopyridine orexin receptor antagonists” (MERCK SHARP & DOHME CORP., priority 2011, dated 2016):

Each molecule was assayed against human orexin-2 receptor (Homo sapiens (Human), UniProt O43614) (assay: radioligand binding assay, hOX2 Bind). Settings: membranes prepared from CHO cells expressing the OX2 receptor; read-out: hOX2 Bind hKi.
Procedure: The utility of the compounds in accordance with the present invention as orexin receptor OX1R and/or OX2R antagonists may be readily determined without undue experimentation by methodology well known in the art, including the “FLIPR Ca^2+ Flux Assay” (Okumura et al., Biochem. Biophys. Res. Comm. 280:976-981, 2001). In a typical experiment the OX1 and OX2 receptor antagonistic activity of the compounds of the present invention was determined in accordance with the following experimental method. For intracellular calcium measurements, Chinese hamster ovary (CHO) cells expressing the rat orexin-1 receptor or the human orexin-2 receptor, are grown in Iscove's modified DMEM containing 2 mM L-glutamine, […], 1% hypoxanthine-thymidine supplement, 100 U/ml penicillin, 100 μg/ml streptomycin and 10% heat-inactivated fetal calf serum (FCS). The cells are seeded at 20,000 cells/well into Becton-Dickinson black 384-well clear bottom sterile plates coated with poly-D-lysine. All reagents were from GIBCO-Invitrogen Corp. The seeded plates are incubated overnight at 37° C. and 5% CO2. […] Within the Fluorescent Imaging Plate Reader (FLIPR, Molecular Devices), test compounds are added to the plate in a volume of […] for 5 min and finally 25 μl of agonist is added. Fluorescence is measured for each well at 1 second intervals for 5 minutes and the height of each fluorescence peak is compared to the height of the fluorescence peak induced by 70 pM Ala-6,12 orexin-A with buffer in place of antagonist. […] Alternatively, compound potency can be assessed by a radioligand binding assay (described in Bergman et. al. Bioorg. Med. Chem. Lett. 2008, 18, 1425-1430) in which the inhibition constant (Ki) is determined in membranes prepared from CHO cells expressing either the OX1 or OX2 receptor. The intrinsic orexin receptor antagonist activity of a compound which may be used in the present invention may be determined by these assays. […]

Sequence of human orexin-2 receptor (O43614 whole entry): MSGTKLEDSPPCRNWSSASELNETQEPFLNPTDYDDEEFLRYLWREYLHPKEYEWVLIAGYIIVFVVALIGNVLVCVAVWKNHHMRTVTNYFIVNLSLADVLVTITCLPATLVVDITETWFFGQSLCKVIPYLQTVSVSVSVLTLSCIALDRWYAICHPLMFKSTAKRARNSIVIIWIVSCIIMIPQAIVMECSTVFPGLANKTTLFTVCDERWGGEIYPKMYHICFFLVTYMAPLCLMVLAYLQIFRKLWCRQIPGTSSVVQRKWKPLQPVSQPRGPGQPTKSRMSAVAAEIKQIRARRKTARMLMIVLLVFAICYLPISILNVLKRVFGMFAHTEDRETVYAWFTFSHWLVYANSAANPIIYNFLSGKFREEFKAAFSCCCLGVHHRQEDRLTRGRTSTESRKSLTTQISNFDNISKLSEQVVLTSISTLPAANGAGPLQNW

How did the Ki turn out when COc1ccc(CNC(=O)c2cc(-c3cncc(C)c3)nc3onc(-c4ccccc4)c23)cc1OC [Example 1-12, N-(3,4-dimethoxybenzyl)-6-(5-methylpyridin-3-yl)-3-phenylisoxazolo[5,4-b]pyridine-4-carboxamide] was run?
The Ki was 10.8 nM.

Which Ki does the source give for COc1cc(C)c(CNC(=O)c2cc(-c3cncc(C)c3)nc3onc(-c4cccs4)c23)nc1OC [Example 1-21, N-[(5,6-dimethoxy-3-methylpyridin-2-yl)methyl]-6-(5-methylpyridin-3-yl)-3-(thiophen-2-yl)isoxazolo[5,4-b]pyridine-4-carboxamide] here?
Its Ki is 0.7 nM.

With COc1ccc(CNC(=O)c2cc(-c3cncc(Br)c3)nc3onc(-c4ccccc4)c23)nc1OC [Example 1-8, 6-(5-bromopyridin-3-yl)-N-[(5,6-dimethoxypyridin-2-yl)methyl]-3-phenylisoxazolo[5,4-b] pyridine-4-carboxamide] as the molecule, how does the Ki read?
Its Ki is 3.8 nM.
